Results published in patent publication US9975852B2, “Quinoline sulfonyl derivatives and uses thereof” (Health Sciences North Research Institute, priority 2013, dated 2018).
“Also recorded” adds a separate entry of the source.

Assays:
Jurkat lymphoma cells = assay: Flow cytometry, apoptosis of Jurkat lymphoma cells; type: cell-based; conditions: 0.75 μM VR-23, 48 hours
Method: Asynchronously growing Jurkat lymphoma cells were incubated for 48 hours in the absence (sham control) or presence of Bortezomib alone or in combination with VR-23.

20S proteasome = 20S proteasome activity in HeLa S3 cell lysates; type: biochemical; conditions: 1 μM VR-23
Method: (§1) Exponentially growing HeLa S3 cells were plated on 96-well plates. After overnight incubation, the cells were treated with different concentrations of drugs for 6 hours or left untreated (control). At the end of 6 hours, proteasomes were extracted in 0.5% NP40 buffer, and equal amounts of samples were incubated with 25 μM of fluorogenic substrates purchased from Boston Biochem (Cambridge Mass.). (LRR-specific for trypsin-like activity, LLE-specific for caspase-like activity and SUVY-specific for chymotrypsin like activity) in black-bottom 96-well plates at 37° C. Fluorescence was monitored every 5 min at the wavelength of 360 nm (excitation) and 480 nm (emission). Chymotrypsin activity was also determined by a kit-based method (similar to described above) purchased from Caymen Biochem (Ann Arbor, Mich.), using a fluorogenic substrate specific for chymotrypsin activity.
(§2) Analysis of proteasome activity in HeLa S3 cell lysates treated with various compounds (FIG. 10). VR-23 inhibits proteasome activity. 20S proteasome activity was inhibited by 1 μM VR-23. MG132 and EGCG, known proteasome inhibitors, were used as positive controls. The PC positive control is cell lysates prepared from Jurkat cells with a high proteasome activity. “Asynchr” denote asynchronous HeLa S3 cells grown in the absence of VR-23.

[1] = biological target: T1, Caspase-like proteasome activity in HeLa S3 cell lysates (Homo sapiens, UniProt P28072); assay: Proteasome activity assay, caspase-like; type: biochemical; conditions: read-out: Inhibition (IC50) Caspase-like
T1 construct: proteasomes were extracted in 0.5% NP40 buffer; endogenous in cells; host or cells: HeLa S3
Method: as §1, §2

Body weight of CD-1 mice = type: in vivo; conditions: 25 mg/kg/week VR-23 i.p.
[2] = biological target: T2, Chymotrypsin-like proteasome activity in HeLa S3 cell lysates (Homo sapiens, UniProt P28074); assay: Proteasome activity assay, chymotrypsin-like; type: biochemical; conditions: read-out: Inhibition (IC50) Chymotrypsin-like
T2 construct: proteasomes were extracted in 0.5% NP40 buffer; endogenous in cells; host or cells: HeLa S3
Method: as §1, §2

HeLa S3 cells = assay: Western blot, immunostaining and immunoprecipitation of cell cycle proteins, HeLa S3 cells; type: cell-based
Source text: All immunocytochemistry experiments were visualized by confocal microscopy using a Zeiss 510 Meta laser scanning microscope (Carl Zeiss) equipped with a 63× objective lens, unless otherwise specified herein. Three lasers were utilized for excitation with the following band pass filter settings used for detection: Argon 488 nm (band pass 505-530), HeNe 543 nm (long pass 560) and 633 nm (long pass 650). All images were captured and analyzed using LSM 510 software included with the microscope (LSM Image Examiner™, Carl Zeiss).
The synchronization at the G1/S border (more accurately at the beginning of S phase) was achieved by double thymidine block (DT). Briefly, exponentially growing cells are treated with 2.0 mM thymidine for 18 hours, followed by incubation for 11 hours in drug-free complete medium, by which time most cells are at mid-late G1 phase. The cells are then incubated for another 14 hours in 2.0 mM thymidine to arrest them at the G1/S border. To arrest cells at the G2/M phase, cells were maintained for 18 hours in complete medium containing nocodazole (50 ng/ml). Both these synchronization are reversible.
Under the experimental conditions, some of the cells were still stuck at G2/M until 8 hour post-drug treatment. “Asynchr” denotes asynchronous cells. 0 hour is the end of nocodazole treatment (i.e., 18 hours in 50 ng/ml nocodazole). At 0 hour, cells were released into complete medium in the absence (control) or presence of 5 μM VR-23 for 2, 4, or 8 hours as indicated. […] Extracts prepared from HeLa S3 cells treated with VR-23 in early-S phase (0 hour post double thymidine treatment), G2/M (arrested by nocodazole), or late G1 (6 hour post nocodazole) were subjected to Western blotting with anti-PARP1 antibody to detect proteins associated with apoptotic activities.
Evaluation of apoptosis in VR-23 treated and untreated control cells (FIG. 8). Treatment of cells in late G1 with VR-23 delayed their progression into S phase. HeLa S3 cells arrested in G2-M phase by nocodazole (50 ng/ml, 18 hours) were incubated in drug-free complete medium for 2, 4 or 6 hours (numbers in brackets), followed by incubation for 2 or 6 hours (+h) in the absence (control) (FIG. 8A) or presence (FIG. 8B) of 10 μM VR-23. […] By (6)+6 hours, most of the control cells already progressed into S phase, but VR-23-treated cells were still in G1 (long and short arrows, respectively). […] Under normal growth conditions, cyclin E expression peaks in late G1 and rapidly levels off as a cell enters S phase, at which time cyclin A expression rapidly increases. […] Thus cells treated with VR-23 were still in G1 phase because cyclin E was not degraded and cyclin A was not induced in a timely manner.
HeLa S3 cells arrested at G1/S by DT were released into cell cycle for 1-3 hours in the absence (control) (FIG. 16A) or presence (FIG. 16B) of VR-23. Cells were then fixed and immunostained with antibodies specific for γ-tubulin and cyclin E, or DNA stained. […] In contrast, cyclin E was localized to the centrosomes by 3 hour post-DT in cells exposed to VR-23 (see inset boxes of FIG. 16B). […] It is noted that proteasomes are localized to the centrosomes^12,13.
HeLa S3 cells synchronized at the G1/S border by DT were released into cell cycle at time 0 hour. Cells were then allowed to progress through S phase for 1 hour (FIG. 17A) or 3 hours (FIG. 17B) in the absence (control) or presence of VR-23. Plk1 was not localized to the centrosome at 1 hour post-DT either in VR-23 treated or untreated control cells. However, unlike in the control, all of the (amplified) centrosomes in cells exposed to VR-23 contained Plk1 by 3 hour post-DT. It was occasionally observed that one of the two centrosomes in untreated cells also contained plk1 at 3 hour post-DT (dotted arrow).
HeLa S3 cells synchronized at G1/S by DT were released into normal growth medium at 0 hour for 1-3 hours in absence (control) (FIG. 18A) or the presence (FIG. 18B) of VR-23. […]

[3] = 10 μM VR-23 after nocodazole release
[4] = released from DT for 1-3 hours with VR-23

O=[N+]([O-])c1ccc(S(=O)(=O)N2CCN(c3ccnc4cc(Cl)ccc34)CC2)c([N+](=O)[O-])c1 [Compound 1, 7-Chloro-4-(4-(2,4-dinitrophenylsulfonyl)piperazin-1-yl)quinoline]
Cell killing by apoptosis (Jurkat lymphoma cells): neither 6 nM of Bortezomib (FIG. 4, ii) nor 0.75 μM of VR-23 (FIG. 4, iv) induced substantial cell killing by apoptosis | 20S proteasome activity (20S proteasome): inhibited; also recorded: almost completely inhibits | IC50 [1]: 3000 nM | Ill effects by changes in body weights (Body weight of CD-1 mice): did not show any ill effects | IC50 [2]: 100 nM | Levels of cyclins B and E (HeLa S3 cells; 10 μM VR-23, 2 hour post-treatment): higher in the VR-23 treated cells than the control | Levels of cyclin E and cyclin A (Western blot) (HeLa S3 cells; 10 μM VR-23, (6)+6 hours): a high level of cyclin E and a lack of detectable cyclin A | Cell cycle arrest (immunoprecipitation) (HeLa S3 cells; [3]): caused cell cycle arrest prior to mitotic checkpoint | Cell cycle arrest point and Cdk1 status (HeLa S3 cells; [3]): arrested at prometaphase through the inactivation of Cdk1 | PARP1 cleavage (Western blot) (HeLa S3 cells; VR-23 in early-S, G2/M or late G1): showed PARP1 cleavage | Centrosomal localization of Plk4 (HeLa S3 cells; [4]): disrupted | Cyclin E localization (HeLa S3 cells; [4]): localized to the centrosome by 3 hour post-DT | Plk1 localization (HeLa S3 cells; released from DT for 1 or 3 hours with VR-23): localized to the centrosome by 3 hour post-DT
